The values that follow come from patent US12364671B1, “Methods of administering vitamin A and lactic acid to gilts” (CHINA AGRICULTURAL UNIVERSITY, priority 2024, dated 2025).

The test system of test [1] is cows with reproductive disorders. To be noted: vitamin A 50000 IU per day, alone or with carotene 200 mg per day; cited from earlier work.
In the next test the test system is sheep. The note with it: 50000 IU per day, continuously fed by 50 days; cited from earlier work.
A further test has as its system gilts. Description: Extra vitamin A fed to gilts prior to estrus initiation. It counts as in vivo. The note with it: extra vitamin A in addition to the diet, no lactic acid. An excerpt: Therefore, the inventors speculated that the lactic acid may be beneficial to the puberty onset and estrus of the gilts.

Regarding vitamin A, in test [1], the conception rate result is “significantly increased”, the estrogen level result was “significantly increased”, the estrus ate entry is given as “not significantly affected” and the follicle size entry was “not significantly affected”. For the same substance, in the test with sheep, the estrus rate result is reported as “no significantly affected” and the lambing rate entry is listed as “significantly increased”. Also, the “delayed estrus initiation or estrus disorder” value in the test on gilts was “improve the delayed estrus initiation or estrus disorder in gilts to some extent”.
